Results on five compounds are retold here after PMC10419185 (International Journal of Molecular Sciences, 2023).

Where a name gives a salt, the structure may show the parent alone. Read-outs that look alike come from different tables or passages of the source.

Series [1] concerns 263K scrapie-infected hamster cerebellar tissue slices. In kind it is cell-based, golden hamster. As to conditions: for PrPSc levels, comparison of c-Abl tyrosine kinase inhibitors: 10 and 20 μM for 5 weeks (Supplementary Figure S3).
In series [2] the test system is 22L scrapie-infected Tga20 cerebellar tissue slices. The class given is cell-based, Tga20 mouse. The settings on record: 25 μM, slices cultured for 3 or 5 weeks.
For series [3] the following is noted: mouse, in vivo; cited from earlier work.
Series [4] concerns 263K scrapie strain. The class given is in vivo, golden hamster.
A further series concerns ZW13-2-22L cells. In kind it is cell-based, mouse.
For series [5] the following is noted: hamster, in vivo; for T1/2: male, golden.
In series [6] the test system is 263K scrapie strain. The class given is in vivo, golden hamster. As to conditions: 100 mg/kg IG.
The test system of a further series is ZW13-2-139A cells. The class given is cell-based, mouse.
In series [7] the test system is ZW13-2, ZW13-2-22L and ZW13-2-139A cells.
Another series can be described thus: in vivo. The settings on record: male, hamster; for Kp: B/P ratio (%); for Tmax / half-life: po; for half-life: T1/2.
For series [8], the system named is RML-infected hemizygous Tg37+/- mice. As to conditions: mouse, in vivo; cited from earlier work.
The next series has as its system scrapie-infected mice. As to conditions: cited from earlier work.

Regarding `Cc1cn(-c2cc(NC(=O)c3ccc(C)c(Nc4nccc(-c5cnccn5)n4)c3)cc(C(F)(F)F)c2)cn1` [radotinib, Radotinib hydrochloride], the values for the PrPSc propagation entry in series [1] (0–40 μM for 5 weeks) and in series [2] were “reduced PrP^Sc propagation in 263K scrapie-infected hamster cerebellar tissue slices in a dose-dependent manner” and “reduced PrP^Sc propagation”, respectively. In series [1] (10 μM, final 2 weeks of 5-week culture), the “PrPSc propagation, treatment in the final 2 weeks” value is given as “effectively inhibited PrP^Sc propagation”. Besides, the “PrPSc propagation, one week of treatment” value in series [1] (10 μM, final one week of 5-week culture) is given as “did not reduce PrP^Sc propagation”. Besides, the “PrPSc levels, comparison of c-Abl tyrosine kinase inhibitors” value in [1] was “reduced PrP^Sc accumulation”. In addition, the “levels of PrPSc, later treatment” value in [1] (10–40 μM, 2 weeks without drug then final 3 weeks with radotinib) is given as “dramatically reduced the levels of PrP^Sc”. Further, in [3], the “blood–brain barrier crossing” value is recorded as “effectively crosses the blood–brain barrier”. For the same compound, the “survival time, range” value in the series with 263K scrapie strain [4] (30 mg/kg IG, n = 8) is given as 140–154 dpi; with 263K scrapie strain [4] (60 mg/kg IG, n = 8) it was 112–208 dpi; in the series on 263K scrapie strain [4] (100 mg/kg IG for the initial 10 weeks, n = 10), 112–191 dpi; in the series on 263K scrapie strain [4] (100 mg/kg IG once a day, 6 days a week, n = 12), 124–223 dpi; in the series with 263K scrapie strain [4] (100 mg/kg IG started 4 weeks postinoculation, n = 9), 126–210 dpi; with 263K scrapie strain [4] (100 mg/kg IG started 8 weeks postinoculation, n = 9), 114–181 dpi. For the same compound, the “survival time, range” value in the series with 263K scrapie strain [4] (200 mg/kg IG, n = 8) is 112–210 dpi. The mean survival time worked out at 145.1 ± 5.3 dpi with 263K scrapie strain [4] (30 mg/kg IG, n = 8, p = 0.05848); 161.0 ± 34.8 dpi in the series with 263K scrapie strain [4] (60 mg/kg IG, n = 8, p = 0.03022); 158.0 ± 31.9 dpi in the series with 263K scrapie strain [4] (100 mg/kg IG started 4 weeks postinoculation (4W-post), n = 9, p = 0.02333); 146.9 ± 23.7 dpi with 263K scrapie strain [4] (100 mg/kg IG started 8 weeks postinoculation (8W-post), n = 9, p = 0.08559); 157.0 ± 33.9 dpi in the series with 263K scrapie strain [4] (200 mg/kg IG, n = 8, p = 0.01944). Further, the survival time in the series on 263K scrapie strain [4] (100 mg/kg IG for the initial 10 weeks (10W-initial), n = 10, p = 0.0446) is on record as 149.6 ± 25.3 dpi; in the series with 263K scrapie strain [4] (100 mg/kg IG once a day, 6 days a week, n = 12, p = 0.00217 vs vehicle (135.1 ± 9.9)) it was 159.3 ± 28.6 dpi; in the series with 263K scrapie strain [4] (intraperitoneal route, 10 mg/kg/day 6 days a week, n = 6, no significant difference), 155 ± 50 dpi. In addition, the “survival times (abstract)” value in the series with 263K scrapie strain [4] (100 mg/kg intragastrically, nontreated 135 ± 9.9 days) is recorded as 159 ± 28.6 days. Moreover, the PrPSc levels entry in the series with ZW13-2-22L cells and in the series with ZW13-2-139A cells was “mild reduction in PrP^Sc levels” each time. In addition, the “blood–brain barrier crossing in hamsters” value in [5] is given as “effectively crosses the BBB in hamsters”. Besides, the “Tmax Median (range, h)” value in series [5] (po, 100 mg/kg) was 6.0 ± 1.15 (6.0–8.0) h. For the same compound, the “PrPSc levels in the brains, Western blot” value in the series with 263K scrapie strain [6] (hamsters sacrificed at 146 dpi) is “markedly decreased”; with 263K scrapie strain [6] (hamsters that died naturally), “also high”. In addition, the “total PrP and PK-resistant PrPSc levels in the brains, immunohistochemical staining” value in the series on 263K scrapie strain [6] (sacrificed on 146 dpi, compared to control-treated infected hamsters) is on record as “definitely lower”. Further, the cell viability result in [7] is reported as “No decrease in viability”. Further, the Kp in the series “in vivo” (golden, 60 mg/kg, AUClast) stood at 0.137 ± 0.021; in “in vivo” (golden, 60 mg/kg, Cmax) it was 0.137 ± 0.023; in the series “in vivo” (golden, 100 mg/kg, AUClast), 0.232 ± 0.155; in the series “in vivo” (golden, 100 mg/kg, Cmax), 0.149 ± 0.014; in the series “in vivo” (60 mg/kg, AUClast), 0.137 ± 0.021; in the series “in vivo” (100 mg/kg, AUClast), 0.232 ± 0.155. The Tmax stood at 6 h in “in vivo” (golden, 60 mg/kg) and 6 h in “in vivo” (golden, 100 mg/kg). Moreover, the half-life in “in vivo” (golden, 100 mg/kg) is 3.3 h.

For the compound `Cc1cn(-c2cc(NC(=O)c3ccc(C)c(Nc4nccc(-c5cccnc5)n4)c3)cc(C(F)(F)F)c2)cn1` [nilotinib, nilotinib hydrochloride monohydrate], the “PrPSc levels, comparison of c-Abl tyrosine kinase inhibitors” value in series [1] is given as “reduced PrP^Sc levels”. The T1/2 in series [5] (po, 60 mg/kg) is 1.4 ± 0.3 h; in series [5] (po, 100 mg/kg) it was 1.4 ± 0.7 h. Further, the half-life in “in vivo” (golden, 60 mg/kg) was 1 ± 0.4 h; in “in vivo” (golden, 100 mg/kg) it was 1.2 ± 0.2 h.

Turning to `O=c1n(CCCN2CCN(c3cccc(Cl)c3)CC2)nc2ccccn12` [trazodone hydrochloride], the survival result in series [8] is on record as “significantly prolong survival without reducing the PrP^Sc levels”.

For the compound `Cc1ccc(NC(=O)c2ccc(CN3CCN(C)CC3)cc2)cc1Nc1nccc(-c2cccnc2)n1` [imatinib, imatinib mesylate], in series [1], the “PrPSc levels, comparison of c-Abl tyrosine kinase inhibitors” value was “had no effect”. Besides, the “survival times of scrapie-infected mice” value in the series on scrapie-infected mice is “prolongs the survival times of scrapie-infected mice”.

On to `O=C(CC(=O)c1ccccc1)c1ccccc1` [dibenzoylmethane], for which, in [8], the survival result is recorded as “significantly prolong survival without reducing the PrP^Sc levels”.
